Molecular target: T1, mGluR2 (Rattus norvegicus, UniProt P31421)
T1 construct: from tissue; host or cells: brain of living male Wistar rats (in vivo microPET)
Experiment: MicroPET imaging: baseline, blocking and chase experiments
Format: in vivo, Wistar rats
Conditions: chase 0.3 mg/kg i.v. ~30 min after [^11C]B-2
Experimental: Imaging experiments were performed on a Focus™ 220 microPET scanner (Concorde Microsystems, Knoxyille, Tenn., USA) using healthy male Wistar rats. During all scan sessions, animals were kept under gas anesthesia (2.5% isoflurane in O2 at 1 L/min flow rate).
Dynamic scans of 90 min were acquired. After reconstruction of the images (filtered back projection), they were spatially normalized to an in-house created [^11C]raclopride template of the rat brain in Paxinos coordinates. Automated and symmetric volumes of interest (VOIs) were generated for different brain regions (striatum, cortex, cerebellum, hippocampus, hypothalamus, thalamus, substantia nigra, nucleus accumbens and lateral globus pallidus) from which time-activity curves (TAC) were constructed for each individual scan, using PMOD software (v 3.1, PMOD Technologies Ltd.). The radioactivity concentration in the different brain regions was expressed as SUV as a function of time p.i. of the radiotracer by normalization for body weight of the animal and injected dose.
Rats were injected with 30-60 MBq of high specific activity formulation of [^11C]B-4, [^11C]B-2, [^11C]B-7, or [^11C]B-10 via the tail vein under isoflurane anesthesia (2.5% in O2 at 1 L/min flow rate).
For pretreatment and displacement experiments, compound A, compound B or ritanserin were dissolved and administered in a vehicle containing 20% (2-hydroxypropyl)-β-cyclodextrine and two equivalents hydrochloric acid. The ritanserin solution was protected from light.
A self-blocking study was done by subcutaneous (s.c.) administration of the authentic reference material (for [^11C]B-4) at ˜30 min prior to the radiotracer injection. Displacement studies were performed by i.v. injection of compound B at dose 4, 1, 0.3 and 0.1 mg/kg, compound A at dose 1 mg/kg or ritanserin at dose 0.3 mg/kg. All chase compounds were injected ˜30 min after radiotracer injection. A wash-out period of at least four days was maintained between the different pretreatment and displacement studies.
[^11C]B-4 was evaluated in vivo in three rats which were scanned dynamically for 90 min using μPET. The first rat was used for a baseline scan. The second rat was pretreated with authentic reference material B-4 via s.c. administration (dose 10 mg/kg) at 30 min prior to tracer injection. The third rat was used in a chase experiment and was injected i.v. with authentic reference material B-4 (dose 3 mg/kg) 30 min after tracer injection.
Two rats were injected with high specific activity tracer ([^11C]B-4, [^11C]B-2, [^11C]B-7, or [^11C]B-10) and scanned dynamically for 90 min. The first rat was scanned baseline, the second rat was injected i.v. with compound B (dose 4 mg/kg) 30 min after tracer injection. Table 16 gives an overview of the maximum and minimum SUV values in the chase experiment for the four studied tracers.
A chase experiment was performed for [^11C]B-2 with different doses of compound B (4, 1, 0.3, 0.1 mg/kg). The chase compound was injected i.v. 30 min after tracer injection. Table 17 gives an overview of the average SUV values before and after injection of the chase for the total brain.

T1 sequence (P31421 19-872): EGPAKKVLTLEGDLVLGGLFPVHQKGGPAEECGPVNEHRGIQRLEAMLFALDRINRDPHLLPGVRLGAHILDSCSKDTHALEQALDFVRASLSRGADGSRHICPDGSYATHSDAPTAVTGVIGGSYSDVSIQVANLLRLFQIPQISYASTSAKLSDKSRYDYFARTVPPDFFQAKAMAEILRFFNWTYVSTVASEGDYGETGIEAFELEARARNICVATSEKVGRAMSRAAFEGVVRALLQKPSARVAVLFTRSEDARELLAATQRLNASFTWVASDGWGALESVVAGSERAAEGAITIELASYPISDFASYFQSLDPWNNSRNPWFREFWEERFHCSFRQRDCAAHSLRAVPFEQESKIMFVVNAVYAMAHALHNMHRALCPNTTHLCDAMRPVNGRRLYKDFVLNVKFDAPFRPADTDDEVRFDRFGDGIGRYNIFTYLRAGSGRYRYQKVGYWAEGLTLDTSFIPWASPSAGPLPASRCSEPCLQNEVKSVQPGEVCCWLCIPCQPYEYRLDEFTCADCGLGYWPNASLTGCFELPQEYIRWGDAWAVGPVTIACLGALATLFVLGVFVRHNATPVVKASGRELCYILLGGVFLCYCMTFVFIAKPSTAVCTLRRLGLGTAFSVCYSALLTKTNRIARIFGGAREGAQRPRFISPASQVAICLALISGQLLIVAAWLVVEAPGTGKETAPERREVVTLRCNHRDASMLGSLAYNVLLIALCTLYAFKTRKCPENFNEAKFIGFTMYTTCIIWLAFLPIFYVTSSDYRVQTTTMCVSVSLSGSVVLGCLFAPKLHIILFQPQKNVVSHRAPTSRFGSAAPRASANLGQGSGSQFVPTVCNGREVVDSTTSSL

effect of the chase compound on the binding of [^11C]B-2: no significant effect
Compound: Cc1nc2sccn2c(=O)c1CCN1CCC(=C(c2ccc(F)cc2)c2ccc(F)cc2)CC1 [Ritanserin, ritanserin, reference compound]

From US20130230459A1, “RADIOLABELLED mGluR2 PET LIGANDS” (Janssen Pharmaceuticals, Inc., priority 2010, published 2013)
